PubChem BioAssay AID1963966 (Molecular Pharmacology Branch, DTP, NCI, 2024)
Values joined by “and” are separate entries in the source; they are usually repeats but may differ in a detail not shown here. Equal values may be shown once.

System: 935938-334-R-J1-PDC spheroids with HUVEC/MSC, viability
Test: Anticancer human tumor 935938-334-R-J1-PDC patient-derived small intestine adenocarcinoma cell line growth inhibition [PI3K]
Conditions: for viability, T/C: stronger effect = lower value
Procedure, shortened: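 Targeted small molecules plus PI3K inhibitors, half-log dose series from Cmax (default top 10 microM), were applied to heterotypic spheroids of cancer cells with HUVEC and MSCs. Viability indicated growth inhibition.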

[1] = curve of first compound, second compound 0.0316 µM
[2] = curve of first compound, second compound 0.1 µM
[3] = curve of first compound, second compound 0.316 µM
[4] = curve of first compound, second compound 1 µM
[5] = second compound 0.0316 µM, first compound 0.0316 µM
[6] = second compound 0.0316 µM, first compound 0.1 µM
[7] = second compound 0.0316 µM, first compound 0.316 µM
[8] = second compound 0.0316 µM, first compound 1 µM
[9] = second compound 0.0316 µM, first compound 3.16 µM
[10] = second compound 0.0316 µM, first compound 10 µM
[11] = second compound 0.1 µM, first compound 0.0316 µM
[12] = second compound 0.1 µM, first compound 0.1 µM
[13] = second compound 0.1 µM, first compound 0.316 µM
[14] = second compound 0.1 µM, first compound 1 µM
[15] = second compound 0.1 µM, first compound 3.16 µM
[16] = second compound 0.1 µM, first compound 10 µM
[17] = second compound 0.316 µM, first compound 0.0316 µM
[18] = second compound 0.316 µM, first compound 0.1 µM
[19] = second compound 0.316 µM, first compound 0.316 µM
[20] = second compound 0.316 µM, first compound 1 µM
[21] = second compound 0.316 µM, first compound 3.16 µM
[22] = second compound 0.316 µM, first compound 10 µM
[23] = second compound 1 µM, first compound 0.0316 µM
[24] = second compound 1 µM, first compound 0.1 µM
[25] = second compound 1 µM, first compound 0.316 µM
[26] = second compound 1 µM, first compound 1 µM
[27] = second compound 1 µM, first compound 3.16 µM
[28] = second compound 1 µM, first compound 10 µM
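Note: compound exposure lasted seven days before viability was read.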
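Throughout, for viability, T/C: percent of vehicle DMSO treated spheroid viability so 100% = untreated.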

## CC1(C)CCC(Nc2ncc(C(F)(F)F)c(-c3c[nH]c4c(P(C)(C)=O)c(C#N)ccc34)n2)CN1 (centres undefined) + COc1c(OCCCN2CCOCC2)ccc2c3n(c(=NC(=O)c4cnc(N)nc4)nc12)CCN3
Curve of first compound, second compound 0.00316 µM
  IC50: < 0.0316 µM
Curve of first compound, second compound 0.01 µM
  IC50: < 0.0316 µM
[1]
  IC50: < 0.0316 µM
[2]
  IC50: < 0.0316 µM
[3]
  IC50: < 0.0316 µM
[4]
  IC50: < 0.0316 µM
Second compound 0.00316 µM, first compound 0.0316 µM
  viability, T/C: 47.8%
Second compound 0.00316 µM, first compound 0.1 µM
  viability, T/C: 35.4%
Second compound 0.00316 µM, first compound 0.316 µM
  viability, T/C: 35%
Second compound 0.00316 µM, first compound 1 µM
  viability, T/C: 33%
Second compound 0.00316 µM, first compound 3.16 µM
  viability, T/C: 37.3%
Second compound 0.00316 µM, first compound 10 µM
  viability, T/C: 8.87%
Second compound 0.01 µM, first compound 0.0316 µM
  viability, T/C: 40.9%
Second compound 0.01 µM, first compound 0.1 µM
  viability, T/C: 34.9%
Second compound 0.01 µM, first compound 0.316 µM
  viability, T/C: 30.1%
Second compound 0.01 µM, first compound 1 µM
  viability, T/C: 34.6%
Second compound 0.01 µM, first compound 3.16 µM
  viability, T/C: 29.6%
Second compound 0.01 µM, first compound 10 µM
  viability, T/C: 8.72%
[5]
  viability, T/C: 30.4%
[6]
  viability, T/C: 35.4%
[7]
  viability, T/C: 33.1%
[8]
  viability, T/C: 27.5%
[9]
  viability, T/C: 34.2%
[10]
  viability, T/C: 6.35%
[11]
  viability, T/C: 35%
[12]
  viability, T/C: 22.9%
[13]
  viability, T/C: 20.2%
[14]
  viability, T/C: 23.8%
[15]
  viability, T/C: 25.7%
[16]
  viability, T/C: 6.52%
[17]
  viability, T/C: 25%
[18]
  viability, T/C: 21%
[19]
  viability, T/C: 22.8%
[20]
  viability, T/C: 22.1%
[21]
  viability, T/C: 23.3%
[22]
  viability, T/C: 4.96%
[23]
  viability, T/C: 18.2%
[24]
  viability, T/C: 24.7%
[25]
  viability, T/C: 15.8%
[26]
  viability, T/C: 24.9%
[27]
  viability, T/C: 19%
[28]
  viability, T/C: 3.4%

## CC(=O)c1c(C)c2cnc(Nc3ccc(N4CCNCC4)cn3)nc2n(C2CCCC2)c1=O
Compound 0.001 µM
  viability, T/C: 93.6% [middle of 4 runs]
Compound 0.00316 µM
  viability, T/C: 89.5% [middle of 4 runs]
Compound 0.01 µM
  viability, T/C: 87.7% [middle of 4 runs]
Compound 0.0316 µM
  viability, T/C: 92.3% [middle of 4 runs]
Curve of compound
  IC50: > 0.1 µM and 0.0566 µM

## CC1(C)CCC(Nc2ncc(C(F)(F)F)c(-c3c[nH]c4c(P(C)(C)=O)c(C#N)ccc34)n2)CN1 (centres undefined) + Cc1nc(NC(=O)N2CCCC2C(N)=O)sc1-c1ccnc(C(C)(C)C(F)(F)F)c1
[1]
  IC50: < 0.0316 µM
[2]
  IC50: < 0.0316 µM
[3]
  IC50: < 0.0316 µM
[4]
  IC50: < 0.0316 µM
Curve of first compound, second compound 3.16 µM
  IC50: < 0.0316 µM
Curve of first compound, second compound 10 µM
  IC50: < 0.0316 µM
[5]
  viability, T/C: 31.4%
[6]
  viability, T/C: 24.9%
[7]
  viability, T/C: 39.4%
[8]
  viability, T/C: 33.7%
[9]
  viability, T/C: 30.8%
[10]
  viability, T/C: 5.69%
[11]
  viability, T/C: 33.6%
[12]
  viability, T/C: 34.4%
[13]
  viability, T/C: 31.6%
[14]
  viability, T/C: 32.3%
[15]
  viability, T/C: 36.3%
[16]
  viability, T/C: 6.9%
[17]
  viability, T/C: 34.6%
[18]
  viability, T/C: 34.5%
[19]
  viability, T/C: 26.2%
[20]
  viability, T/C: 29.6%
[21]
  viability, T/C: 27.6%
[22]
  viability, T/C: 6.74%
[23]
  viability, T/C: 38.3%
[24]
  viability, T/C: 26.2%
[25]
  viability, T/C: 23.7%
[26]
  viability, T/C: 20.8%
[27]
  viability, T/C: 23.7%
[28]
  viability, T/C: 4.15%
Second compound 3.16 µM, first compound 0.0316 µM
  viability, T/C: 24.6%
Second compound 3.16 µM, first compound 0.1 µM
  viability, T/C: 22.6%
Second compound 3.16 µM, first compound 0.316 µM
  viability, T/C: 24.5%
Second compound 3.16 µM, first compound 1 µM
  viability, T/C: 25.2%
Second compound 3.16 µM, first compound 3.16 µM
  viability, T/C: 25.2%
Second compound 3.16 µM, first compound 10 µM
  viability, T/C: 3.91%
Second compound 10 µM, first compound 0.0316 µM
  viability, T/C: 25.6%
Second compound 10 µM, first compound 0.1 µM
  viability, T/C: 23.8%
Second compound 10 µM, first compound 0.316 µM
  viability, T/C: 26.2%
Second compound 10 µM, first compound 1 µM
  viability, T/C: 24.7%
Second compound 10 µM, first compound 3.16 µM
  viability, T/C: 19.9%
Second compound 10 µM, first compound 10 µM
  viability, T/C: 2.1%
